In patent US20260232666A1, “COMPOSITIONS AND METHODS FOR INHIBITION OF RAS” (TheRas, Inc., priority 2023, published 2026):

Key:
[1] = molecular target: T1, GDP-loaded KRAS4b (amino acids 1-169) G12C/C118S protein (Homo sapiens, UniProt P01116, C118S/G12C); assay: Covalent cysteine 12 modification by MALDI-TOF MS, GDP-loaded KRAS G12C; assay type: binding; conditions: 15 minutes reaction time point
T1 construct: KRAS4b (amino acids 1-169) G12C/C118S protein; made in house
Experimental: (§1) Biological Example 1: Covalent Cysteine 12 Modification Analysis Using Matrix Assisted Laser Desorption Ionization-Time of Flight Mass Spectrometry (MALDI-TOF MS)
(§2) MALDI-TOF MS analysis was performed using 1 μM protein (KRAS G12C), and 1:2.5 protein to compound ratio.
(§3) Reaction: 1 μM of GppNHp, GTP, or GDP-loaded KRAS4b (amino acids 1-169) G12C/C118S protein (produced in-house by Protein Expression Laboratory, FNLCR/Leidos Biomed) in 20 mM 4-(2-hydroxyethyl)-1-piperazineethanesulfonic acid (HEPES) buffer containing 150 mM NaCl, 1 mM MgCl2, pH 7.3 was prepared freshly before assay. Twelve-μL aliquots of protein were dispensed onto low volume 384-well plate, then 30 nL of tested compounds from 1 mM DMSO stocks were added to appropriate wells using ECHO 555 acoustic liquid handler (Labcyte Inc.). For each reaction/assay, three blanks were prepared by mixing 12 μL of protein solution with 30 nL DMSO. The contents of the wells were carefully mixed by aspiration, and then each plate was sealed with an adhesive cover, centrifuged at 2000 g for 1 minute, and kept in the dark at room temperature until 5 min, 15 min, 30 min, 2 h, or 6 h collections.
(§4) Target pretreatment: Before each assay MALDI target (Bruker MPT 384 ground steel BC) was pre-treated by pipetting on each spot 0.75 μL of saturated sinapinic acid in acetonitrile (ACN).
(§5) Sample preparation: At collection time point, 2 μL of reaction mixtures were pipetted out into 15 μL MALDI matrix solution (saturated solution of sinapinic acid in 1:1 ACN:water solution containing 0.75% trifluoroacetic acid (TFA)) deposited on 384 well polypropylene plate. Resulting solution was mixed by aspiration, centrifuged at 2000 g for 1 minute, then 1.5 μL aliquots were dispensed on pre-treated MALDI target using Beckman Coulter Biomek FXP 96/384-Span-8 Laboratory Automation Workstation. Finally, the MALDI target was dried under mild vacuum to produce spots with fine crystalline structure.
(§6) Measurements: MALDI-TOF measurements were performed on a Bruker Daltonics rapiflex Tissuetyper TOF-TOF mass spectrometer using linear mode and mass range from 18.6 to 21.6 kDa. Detector gain was set to 3.3×(483 V), sample rate to 5 GS/s, real time smoothing to medium (175 MHz), laser smart beam pattern was set to: “MS Thin Layer M5”, and the laser frequency was 10000 Hz. Spectra were automatically collected using custom AutoXecute method. Laser power was auto adjusted using fuzzy control. The peak selection range was set to be between 19000 and 21500 Da. Peak evaluation uses half width parameter set to be smaller than 40 Da for processed spectrograms (centroid peak detection; smoothed by SavitzkyGolay algorithm using 7 m/z width and 2 cycles; baseline was subtracted using median algorithm with flatness 1 and median level 0.01). Fuzzy control used Proteins/Oligonucleotides protocol with minimum half width 1/10 times above threshold. Up to 40000 satisfactory shots were collected in 10000 shot steps. Dynamic termination was implemented to finish data collection when peak signal/noise ratio was reaching value of 50.
(§7) Spectra processing: Spectra were smoothed by SavitzkyGolay algorithm using 7 m/z width and three cycles. Centroid peak detection algorithm was used with signal to noise threshold set to 6, relative intensity threshold 4%, peak width 10 m/z and median baseline subtraction using flatness of 1 and median level of 0.01. Peak intensity and area under the peak were evaluated and recorded for all peaks between 19,300 Da and 21,550 Da.
(§8) Calculation of percent modification: Percent modification was calculated as a ratio of peak height for protein modified by compound to sum of peak height of remaining protein plus peak height for protein modified by compound. If multiple modifications were observed each was calculated as a ratio of peak height for given modification versus sum of peak heights for all observed protein species. Data reported in Table 4 are from 15 minutes reaction time point. […]

[2] = molecular target: T2, GppNHp-loaded KRAS4b (amino acids 1-169) G12C/C118S protein (Homo sapiens, UniProt P01116, C118S/G12C); assay: Covalent cysteine 12 modification by MALDI-TOF MS, GppNHp-loaded KRAS G12C; assay type: binding; conditions: 15 minutes reaction time point
T2 construct: KRAS4b (amino acids 1-169) G12C/C118S protein; made in house
Experimental: as §1, §2, §3, §4, §5, §6, §7, §8

[3] = molecular target: T3, GTP-loaded KRAS4b (amino acids 1-169) G12C/C118S protein (Homo sapiens, UniProt P01116, C118S/G12C); assay: Covalent cysteine 12 modification by MALDI-TOF MS, GTP-loaded KRAS G12C; assay type: binding; conditions: 15 minutes reaction time point
T3 construct: KRAS4b (amino acids 1-169) G12C/C118S protein; made in house
Experimental: as §1, §2, §3, §4, §5, §6, §7, §8

pERK in NCI-H358 cells = assay: Cell-based pERK HTRF assay (pERK inhibition in H358 cells); conditions: Homo sapiens, NCI-H358, 0.5 h, 30 min incubation
Experimental: Biological Example 3: Cell-Based pERK HTRF Assay
pERK assays (Perkin Elmer) were used to determine the effectiveness of compounds of the present disclosure in disrupting KRAS G12C protein/effector signaling in cells.
On Day 1, cells (NCI-H358) were seeded into 96-well plates at 4×10^4 cells/well in complete growth media (RPMI, 10% FBS).
On Day 2, cells were treated with compounds at 0.25% DMSO. The source plate was created with compounds diluted in media at 5-fold the final assay concentration. The compounds were run in a 9-point concentration curve starting at 75 μM, with a 3-fold dilution between concentrations. 20 μL was transferred onto the cell plates (final volume in wells was 100 μL). Plates were harvested after 30 min incubation by aspirating media and adding kit-supplied 1× supplemented lysis buffer to all wells (75 μl per well). Plates were then placed on a plate shaker and incubated at 850 rpm for an additional 30 min.
Antibody mixture solution was prepared by diluting aliquoted d2 and Eu Cryptate antibodies 1:20 in kit supplied detection buffer, then mixed the diluted antibodies solutions (1:1 v:v). 4 μL of this solution was then added to a 384-well detection plate (Perkin Elmer; 6008230).
Samples were homogenized by pipetting up and down and then transferred (16 μL of cell lysates) from the 96-well cell culture plate to two wells of the HTRF 384-well detection plate containing the antibody solution. Plates were centrifuged (524 g for […]) and allowed to incubate between 4 and 24 h at room temperature. Maximum signal is reached after 4 h incubation time and remains stable over a period of 24 hours. Therefore, readings can be made between 4 and 24 h of incubation. Plates were centrifuged again (524 g for 1 min), and analyzed on the En Vision plate reader using the following settings: Excitation 320 nm, Bandwidth 75 nm; Emission 615 nm, Bandwidth 85 nm; Gain 100%; Flashes 100; Lag 60 μs.
The percent of modification of GppNHp, GTP, or GDP loaded KRAS G12C by MALDI-TOF MS, biochemical Raf1 RBD-KRAS G12C-GppNHp disruption assay IC50, and pERK inhibition IC50 of selected compounds described herein are shown in Table 4. For percent of modification at 15 minutes (MALDI-TOF MS) of GppNHp, GTP, or GDP loaded KRAS G12C: A: percent of modification ≥70%; B: 50≤percent of modification <70%; C: 10%≤percent of modification <50%; D: percent of modification <10%. […] For pERK inhibition in H358 cell assay: A: IC50≤0.1 μM; B: 0.1 μM<IC50≤1 μM; C: IC50>1 μM. Blanks in the table represent that compound was not tested in the indicated assay.

Compound | GDP-KRAS G12C percent of modification [1] | GppNHp-KRAS G12C percent of modification [2] | GTP-KRAS G12C percent of modification [3] | IC50 (pERK in NCI-H358 cells)
COC1CC(COc2nc(N(C)C3CCN(C(=O)/C=C/c4nc(C(C)(F)F)no4)C3C)c3cc(Cl)c(-c4ccc(F)c5sc(N)c(C#N)c45)c(F)c3n2)N(C)C1 (centres unmarked) [Compound 190] | B (50≤percent of modification <70%) | B (50≤percent of modification <70%) | B (50≤percent of modification <70%) | < 100 nM
C[C@@H]1CN(c2nc(OC[C@@]34CCCN3C[C@H](F)C4)nc3c(F)c(-c4ccc(F)c5sc(N)c(C#N)c45)c(Cl)cc23)[C@@H](C)CN1C(=O)/C=C/c1nc(C(C)(F)F)no1 [Compound 191] | B (50≤percent of modification <70%) | B (50≤percent of modification <70%) | B (50≤percent of modification <70%) | 100 to 1000 nM
C=CC(=O)N1CC[C@@H](N(C)c2nc(O[C@@H](C)[C@@H]3[C@@H](OC)CCN3C)nc3c(F)c(-c4ccc(F)c5sc(N)c(C#N)c45)c(C(F)(F)F)cc23)[C@H]1C [Compound 193] | A (percent of modification ≥70%) | A (percent of modification ≥70%) | A (percent of modification ≥70%) | < 100 nM
C=CC(=O)N1CC[C@@H](N(C)c2nc(O[C@@H](C)[C@@H]3C[C@@H](OC)CN3C)nc3c(F)c(-c4ccc(F)c5sc(N)c(C#N)c45)c(Cl)cc23)[C@H]1C [Compound 194] | A (percent of modification ≥70%) | A (percent of modification ≥70%) | A (percent of modification ≥70%) | < 100 nM
C=CC(=O)N1CC[C@@H](N(C)c2nc(O[C@@H](C)[C@@H]3[C@@H](OC)CCN3C)nc3c(F)c(-c4ccc(F)c5sc(N)c(C#N)c45)c(Cl)cc23)[C@H]1C [Compound 195] | A (percent of modification ≥70%) | A (percent of modification ≥70%) | A (percent of modification ≥70%) | < 100 nM
C=CC(=O)N1CC[C@@H](N(C)c2nc(OC[C@@H]3[C@@H](OC)CCN3C)nc3c(F)c(-c4ccc(F)c5sc(N)c(C#N)c45)c(Cl)cc23)[C@H]1C [Compound 196] | A (percent of modification ≥70%) | A (percent of modification ≥70%) | A (percent of modification ≥70%) | < 100 nM
C=CC(=O)N1CC[C@@H](N(C)c2nc(OC[C@@H]3[C@@H](OC)CCN3C)nc3c(F)c(-c4ccc(F)c5sc(N)c(C#N)c45)c(C(F)(F)F)cc23)[C@H]1C [Compound 197] | A (percent of modification ≥70%) | A (percent of modification ≥70%) | A (percent of modification ≥70%) | < 100 nM
C=CC(=O)N1CC[C@@H](N(C)c2nc(OC[C@@H]3C(=C(F)F)CCN3C)nc3c(F)c(-c4ccc(F)c5sc(N)c(C#N)c45)c(Cl)cc23)[C@H]1C [Compound 198] | B (50≤percent of modification <70%) | B (50≤percent of modification <70%) | B (50≤percent of modification <70%) | < 100 nM
C=CC(=O)N1CC[C@@H](N(C)c2nc(OC[C@@H]3C(=C(F)F)CCN3C)nc3c(F)c(-c4ccc(F)c5sc(N)c(C#N)c45)c(C(F)(F)F)cc23)[C@H]1C [Compound 199] | C (10%≤percent of modification <50%) | C (10%≤percent of modification <50%) | C (10%≤percent of modification <50%) | < 100 nM
C=CC(=O)N1CC[C@@H](N(C)c2nc(O[C@@H](C)[C@@H]3C(=C)CCN3C)nc3c(F)c(-c4ccc(F)c5sc(N)c(C#N)c45)c(Cl)cc23)[C@H]1C [Compound 200] | C (10%≤percent of modification <50%) | A (percent of modification ≥70%) | B (50≤percent of modification <70%) | < 100 nM
C=CC(=O)N1CC[C@@H](N(C)c2nc(O[C@@H](C)[C@@H]3C(=C(F)F)CCN3C)nc3c(F)c(-c4ccc(F)c5sc(N)c(C#N)c45)c(Cl)cc23)[C@H]1C [Compound 201] | B (50≤percent of modification <70%) | B (50≤percent of modification <70%) | C (10%≤percent of modification <50%) | 100 to 1000 nM
